Source: ChEMBL document CHEMBL1155734, “Multiplolides A and B, new antifungal 10-membered lactones from Xylaria multiplex” (J Nat Prod, 2001)
≈ marks a conversion by molar mass, not a printed value. Calls of active or inactive are those of the source. The rule behind the calls is not given here.

Experiments:
Candida albicans = test: Antifungal activity against Candida albicans by colorimetric method; assay type: functional, organism-based
Plasmodium falciparum [1] = test: Antimalarial activity as growth inhibition of Plasmodium falciparum K1 by [3H]hypoxanthine uptake; assay type: functional, organism-based
Plasmodium falciparum [2] = test: Antimalarial activity as growth inhibition of Plasmodium falciparum K1 at 20 ug/mL by [3H]hypoxanthine uptake; assay type: functional, organism-based
BC1 = test: Cytotoxicity against human BC1 cells at 20 ug/mL; assay type: functional, cell-based
KB = test: Cytotoxicity against human KB cells at 20 ug/mL; assay type: functional, cell-based

Structure (SMILES): C[C@@H]1[C@H](O)[C@@H](C)/C=C/C=C/C=C/C=C/C=C/C=C/C=C/[C@H](O[C@@H]2O[C@H](C)[C@@H](O)[C@H](N)[C@@H]2O)C[C@@H]2O[C@](O)(C[C@@H](O)C[C@@H](O)[C@H](O)CC[C@@H](O)C[C@@H](O)CC(=O)O[C@H]1C)C[C@H](O)[C@H]2C(=O)O [AMPHOTERICIN B]
- IC50 (Candida albicans): 0.01 µg/mL (≈ 0.0108 µM)

Structure (SMILES): C[C@@H]1CC[C@H]2[C@@H](C)C(=O)O[C@@H]3O[C@@]4(C)CC[C@@H]1[C@]32OO4 [ARTEMISININ]
- IC50 (Plasmodium falciparum [1]): 0.001 µg/mL (≈ 0.00354 µM)

Structure (SMILES): C[C@@H]1C[C@@H](O)[C@@H](O)/C=C/[C@@H]2O[C@@H]2C(=O)O1 [MULTIPLOLIDE A]
- Activity (Plasmodium falciparum [2]): inactive
- IC50 (Candida albicans): 7 µg/mL (≈ 32.7 µM)
- Activity (BC1): inactive
- Activity (KB): inactive

Structure (SMILES): C/C=C/C(=O)O[C@@H]1C[C@@H](C)OC(=O)C2OC2/C=C/[C@@H]1O (stereo not given in full) [MULTIPLOLIDE B]
- Activity (Plasmodium falciparum [2]): inactive
- IC50 (Candida albicans): 2 µg/mL (≈ 7.08 µM)
- Activity (BC1): inactive
- Activity (KB): inactive
